From patent publication US20240383871A1, “COMPOUND USEFUL FOR PET-IMAGING OF BRUTON’S TYROSINE KINASE” (Bristol-Myers Squibb Company, priority 2021, published 2024)

Assay: In-vivo PET imaging in rhesus monkey to determine brain penetrance
Settings: healthy rhesus monkey
Excerpt: The non-human primate was kept immobilized in the extended imaging bed inside the gantry of the PET imaging system (MicroPET® P4, Siemens Preclinical Solutions, Knoxville, TN). The scanning region was a single bed position from approximately the top of skull and extending through the lower neck area, to fit into the 7.6 cm MicroPET system axial FOV. A 10-minute transmission scan was acquired using a ^57Co point source for the purpose of attenuation correction of the subsequent emission image. Approximately 0.96 mCi of [^11C]-(R)-4-(2-acryloyl-1,2,3,4-tetrahydroisoquinolin-5-yl)-5-fluoro-2,3-dimethyl-1H-indole-7-carboxamide was injected IV and a 60-minute dynamic PET image was acquired. PET images were reconstructed with a filtered back projection (FBP) or MAP algorithm with attenuation correction. Using the AMIDE software package, an ROI encompassing the whole brain was manually drawn in the PET images. Mean standardized uptake value (SUV), which is normalized with body weight (kg) and injected dose (mCi), was calculated and plotted as a function of time to obtain a TAC. […] In healthy rhesus monkey, as in WT mice. there is very low brain expression of BTK in a non-diseased state.

brain penetrance (baseline (PET ligand only), IV, 0-60 minutes): confirmed brain penetrance
SMILES: C=C[11C](=O)N1CCc2c(cccc2-c2c(F)cc(C(N)=O)c3[nH]c(C)c(C)c23)C1 [[^11C]-(R)-4-(2-acryloyl-1,2,3,4-tetrahydroisoquinolin-5-yl)-5-fluoro-2,3-dimethyl-1H-indole-7-carboxamide]
brain time-activity curve (TAC) behaviour: rapid brain penetration followed by washout
brain uptake pattern (summed images 0-60 minutes post injection (FIG. 7)): Diffuse uptake was observed throughout the brain
